Test results as given in ChEMBL document CHEMBL4823263, “Discovery of 2-(3-(3-Carbamoylpiperidin-1-yl)phenoxy)acetic Acid Derivatives as Novel Small-Molecule Inhibitors of the β-Catenin/B-Cell Lymphoma 9 Protein-Protein Interaction” (J Med Chem, 2021).
Activity calls are given as the source filed them. The calls are words filed in the database; no cut-off is given here.

How the values were obtained:
[1] = biological target: Protein Wnt-3a (Mus musculus) (UniProt P27467); test: Inhibition of mouse wnt3a expressed in human MDA-MB-231 cells assessed as LEF1 level at 3.3 uM incubated for […] by quantitative real-time PCR analysis relative to control; format: cell-based; parameters: scale not given: the % may be the effect or the level left
[2] = test system: SW480; test: Inhibition of Wnt/beta-catenin transactivation signalling in human SW480 cells harboring mutant tcf4 binding sites assessed as relative activity at 6.25 uM incubated for 24 hrs by FOPFlash luciferase assay relative to control; format: cell-based; parameters: scale not given: the % may be the effect or the level left
[3] = biological target: Protein Wnt-3a (Mus musculus) (UniProt P27467); test: Inhibition of mouse wnt3a expressed in human MDA-MB-231 cells assessed as LEF1 level at 30 uM incubated for […] by quantitative real-time PCR analysis relative to control; format: cell-based; parameters: scale not given: the % may be the effect or the level left
[4] = test system: SW480; test: Inhibition of Wnt/beta-catenin transactivation signalling in human SW480 cells harboring mutant tcf4 binding sites assessed as relative activity at 3.125 uM incubated for 24 hrs by FOPFlash luciferase assay relative to control; format: cell-based; parameters: scale not given: the % may be the effect or the level left
[5] = biological target: Protein Wnt-3a (Homo sapiens) (UniProt P56704); test: Inhibition of Wnt3a in human SW480 cells assessed as LEF1 level at 3.3 uM incubated for […] by quantitative real-time PCR analysis relative to control; format: cell-based; parameters: scale not given: the % may be the effect or the level left
[6] = test system: SW480; test: Antiproliferative activity against human SW480 cells harboring empty pcDNA3.1 vector incubated for 72 hrs by MTS assay; format: functional, cell-based; details: SW480, 72 h
[7] = biological target: Protein Wnt-3a (Homo sapiens) (UniProt P56704); test: Inhibition of Wnt3a in human SW480 cells assessed as cyclin D1 level at 10 uM incubated for […] by quantitative real-time PCR analysis relative to control; format: cell-based; parameters: scale not given: the % may be the effect or the level left
[8] = biological target: Protein Wnt-3a (Mus musculus) (UniProt P27467); test: Inhibition of mouse wnt3a expressed in human MDA-MB-231 cells assessed as HPRT level at 30 uM incubated for […] by quantitative real-time PCR analysis relative to control; format: cell-based; parameters: scale not given: the % may be the effect or the level left
[9] = biological target: Protein Wnt-3a (Mus musculus) (UniProt P27467); test: Inhibition of mouse wnt3a expressed in human MDA-MB-231 cells assessed as Axin2 level at 3.3 uM incubated for […] by quantitative real-time PCR analysis relative to control; format: cell-based; parameters: scale not given: the % may be the effect or the level left
[10] = biological target: T1, Cadherin-1 (Homo sapiens) (UniProt P12830); test: Disruption of full length beta-catenin/E-cadherin interaction in human HCT116 cells incubated for 24 hrs by co-immunoprecipitation assay; format: cell-based; details: HCT-116
T1 sequence (whole entry): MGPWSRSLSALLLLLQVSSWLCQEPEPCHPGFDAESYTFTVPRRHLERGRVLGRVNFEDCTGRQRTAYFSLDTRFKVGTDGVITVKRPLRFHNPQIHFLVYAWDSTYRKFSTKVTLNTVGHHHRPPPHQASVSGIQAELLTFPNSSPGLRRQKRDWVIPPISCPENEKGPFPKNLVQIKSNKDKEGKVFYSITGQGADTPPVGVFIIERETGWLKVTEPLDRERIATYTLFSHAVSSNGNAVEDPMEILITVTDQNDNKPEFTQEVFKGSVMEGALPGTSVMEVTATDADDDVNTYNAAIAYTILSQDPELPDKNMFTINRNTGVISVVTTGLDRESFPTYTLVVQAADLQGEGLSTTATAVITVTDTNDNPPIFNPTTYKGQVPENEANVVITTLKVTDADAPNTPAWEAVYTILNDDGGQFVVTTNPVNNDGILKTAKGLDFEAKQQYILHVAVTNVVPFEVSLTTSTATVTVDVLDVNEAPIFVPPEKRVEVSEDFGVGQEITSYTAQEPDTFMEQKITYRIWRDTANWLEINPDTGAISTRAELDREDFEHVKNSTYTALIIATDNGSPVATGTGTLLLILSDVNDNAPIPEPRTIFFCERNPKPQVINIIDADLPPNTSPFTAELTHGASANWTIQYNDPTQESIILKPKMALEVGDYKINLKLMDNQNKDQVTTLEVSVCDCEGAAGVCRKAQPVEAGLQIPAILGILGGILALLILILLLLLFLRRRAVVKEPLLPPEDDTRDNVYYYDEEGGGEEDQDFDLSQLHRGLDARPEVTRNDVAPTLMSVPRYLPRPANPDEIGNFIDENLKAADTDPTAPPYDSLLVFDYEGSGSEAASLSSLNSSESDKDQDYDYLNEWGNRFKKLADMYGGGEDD

Protein Wnt-3a (Mus musculus), sequence (P27467 whole entry): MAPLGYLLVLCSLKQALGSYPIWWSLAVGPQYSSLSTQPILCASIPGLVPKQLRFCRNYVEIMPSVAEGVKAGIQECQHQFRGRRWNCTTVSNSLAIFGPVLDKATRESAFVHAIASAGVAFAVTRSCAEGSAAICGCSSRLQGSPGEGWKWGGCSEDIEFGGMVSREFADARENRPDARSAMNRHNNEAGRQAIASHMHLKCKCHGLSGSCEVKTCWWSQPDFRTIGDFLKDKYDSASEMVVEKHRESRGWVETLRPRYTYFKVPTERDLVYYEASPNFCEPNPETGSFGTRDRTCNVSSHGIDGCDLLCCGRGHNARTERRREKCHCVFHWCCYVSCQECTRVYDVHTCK
Protein Wnt-3a (Homo sapiens), sequence (P56704 whole entry): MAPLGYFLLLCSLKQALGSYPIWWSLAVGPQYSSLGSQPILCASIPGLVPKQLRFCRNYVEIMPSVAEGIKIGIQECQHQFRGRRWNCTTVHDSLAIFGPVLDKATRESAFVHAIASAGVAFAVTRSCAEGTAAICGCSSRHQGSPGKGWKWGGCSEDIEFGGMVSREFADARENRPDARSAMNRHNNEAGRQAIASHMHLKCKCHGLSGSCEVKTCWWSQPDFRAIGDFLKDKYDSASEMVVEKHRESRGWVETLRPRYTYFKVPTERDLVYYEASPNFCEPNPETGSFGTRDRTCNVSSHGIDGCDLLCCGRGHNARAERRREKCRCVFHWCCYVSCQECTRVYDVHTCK

Activity [1]: 87%
Activity [3]: 76%
Activity [5]: 80%
IC50 [6]: 19 µM
Activity [7]: 40%
Activity [8]: 99%
Activity [9]: 69%
Activity [10]: inactive
Structure (SMILES): CC(C)(Oc1cccc(N2CCC[C@H](C(=O)N(Cc3ccc(-c4cccs4)cc3)C3CC3)C2)c1)C(=O)NS(=O)(=O)c1ccc(C#N)cc1
Activity [2]: 97%
Activity [4]: 99%
